The values that follow come from patent publication US9469644B2, “Inhibitors of Bruton's tyrosine kinase” (Hoffmann-La Roche Inc., priority 2013, dated 2016).

Broadly, the IC50 is the concentration at which inhibition is half-maximal. Low values mean greater potency in that assay, high ones weaker potency in that assay.

For the assay, the target named is Bruton's Tyrosine Kinase (BTK), inactivated state (Homo sapiens (Human), UniProt Q06187). The assay can be described thus: BTK inhibition TR-FRET competition assay. The assay is classed as binding. To be noted: TR-FRET competition with Kinase Tracer 178, 18-24 h at 14° C. The method, then: This BTK competition assay measures compound potency (IC50) for the inactivated state of Bruton's Tyrosine Kinase using FRET (Förster/Flouresence Resonance Energy Transfer) technology. The BTK-Eu complex was incubated on ice one hour prior to use at a starting concentration of 50 nM BTK-BioeaseTM: 10 nM Eu-streptavidin (Perkin-Elmer Catalog# AD0062). The assay buffer consisted of 20 mM HEPES (pH 7.15), 0.1 mM DTT, 10 mM MgCl2, 0.5 mg/ml BSA with 3% Kinase Stabilizer (Fremont Biosolutions, Catalog #STB-K02). After 1 h, the reaction mixture from above was diluted 10 fold in assay buffer to make 5 nM BTK: 1 nM Eu-Streptavidin complex (donor fluorophore). 18 μl of a mixture of 0.11 nM BTK-Eu and 0.11 nM Kinase Tracer 178 (Invitrogen, Catalog #PV5593,) with BTK-Eu alone as no negative control, was then dispensed into 384-well flat bottom plates (Greiner, 784076). Compounds to be tested in assay were prepared as 10× concentrations and serial dilution in half-log increments was performed in DMSO so as to generate 10 point curves. To initiate the FRET reaction, compounds prepared as 10× stock in DMSO was added to the plates and the plates were incubated 18-24 h at 14° C. After the incubation the plates were read on a BMG Pherastar Fluorescent plate reader (or equivalent) and used to measure the emission energy from the europium donor fluorophore (620 nm emission) and the FRET (665 nm emission). The negative control well values were averaged to obtain the mean minimum. The positive “no inhibitor” control wells were averaged to obtain the mean maximum. […] The mean IC50 and standard deviation will be derived from duplicate curves (singlet inhibition curves from two independent dilutions) using Microsoft Excel.
Chain of Bruton's Tyrosine Kinase (BTK), inactivated state (Q06187 whole entry): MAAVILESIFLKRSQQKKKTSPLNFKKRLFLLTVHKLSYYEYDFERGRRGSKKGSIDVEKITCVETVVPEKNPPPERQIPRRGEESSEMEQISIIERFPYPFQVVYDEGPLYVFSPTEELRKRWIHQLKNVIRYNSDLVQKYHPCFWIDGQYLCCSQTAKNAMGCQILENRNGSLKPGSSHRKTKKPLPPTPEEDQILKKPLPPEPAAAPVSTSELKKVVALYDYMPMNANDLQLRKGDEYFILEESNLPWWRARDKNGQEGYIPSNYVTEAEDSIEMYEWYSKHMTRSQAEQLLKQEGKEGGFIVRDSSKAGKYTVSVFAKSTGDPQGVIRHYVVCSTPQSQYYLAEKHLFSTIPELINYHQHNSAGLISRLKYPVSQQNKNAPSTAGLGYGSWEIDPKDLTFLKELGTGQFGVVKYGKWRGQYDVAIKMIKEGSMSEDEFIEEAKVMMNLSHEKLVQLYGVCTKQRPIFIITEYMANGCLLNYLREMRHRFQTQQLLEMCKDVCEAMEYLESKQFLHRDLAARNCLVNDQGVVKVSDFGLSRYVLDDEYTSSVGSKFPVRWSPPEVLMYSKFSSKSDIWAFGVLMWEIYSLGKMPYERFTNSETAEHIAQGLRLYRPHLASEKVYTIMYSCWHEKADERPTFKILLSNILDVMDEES
A general note: In TR-FRET formats the signal depends on donor and acceptor labels being close together.
As for `CC(C)(C)OC(=O)NC1CCCC(C(=O)O)C1` (stereo not shown) [Compound 7], the IC50 was determined as 109 nM. This lies in the sub-micromolar range. Compound `Cn1cc(Nc2nc(NC3CCCC(NC(=O)c4ccc(C(C)(C)C)cc4)C3)c3nc[nH]c3n2)cn1` (stereo not shown) [Compound 5, 4-tert-butyl-N-{3-[2-(1-methyl-1H-pyrazol-4-ylamino)-9H-purin-6-ylamino]-cyclohexyl}-benzamide] registered an IC50 of 56.9 nM. Compound `O=C(NC1CCCC(Nc2ncnc3[nH]cnc23)C1)c1ccccc1` (stereo not shown) [Compound 6] returned an IC50 of 45.3 nM. This IC50 and that of the compound before are within 1.5-fold of each other. Then `CC(C)(C)c1ccc(C(=O)NC2CCCC(Nc3ncnc4[nH]cnc34)C2)cc1` (stereo not shown) [Compound 1, 4-tert-Butyl-N-[3-(7H-purin-6-ylamino)-cyclohexyl]-benzamide], with 9570 nM. Then `CC1CCCC(Nc2nc(Nc3cnn(C)c3)nc3[nH]cnc23)C1` (stereo not shown) [Compound 4, N*6*-(3-Methyl-cyclohexyl)-N*2*-(1-methyl-1H-pyrazol-4-yl)-9H-purine-2,6-diamine], with 40600 nM. Then `O=C(NCc1cccc(Cl)c1)C1CCCC(Nc2ncnc3[nH]cnc23)C1` (stereo not shown) [Compound 2, 3-(9H-Purin-6-ylamino)-cyclohexanecarboxylic acid 3-chloro-benzylamide], with 100000 nM; and `Cn1cc(Nc2nc(NC3CCCCC3)c3nc[nH]c3n2)cn1` [Compound 3, N*6*-Cyclohexyl-N*2*-(1-methyl-1H-pyrazol-4-yl)-9H-purine-2,6-diamine], with 2820 nM.
